Measurements from patent US20240115672A1, “TREATMENT OF AN IOP CONDITION” (THE RESEARCH FOUNDATION FOR THE STATE UNIVERSITY OF NEW YORK, priority 2021, published 2024).

Tests used:
[1] = system: sheep of the Corriedale breed; assay: IOP in prednisolone-treated sheep after intravitreal tPA (Example 3, Protocol 1); format: in vivo
Protocol: Methods. The inventors used recombinant human tissue plasminogen activator (rtPA) ([…]; Boehringer Ingelheim SA, Buenos Aires, Argentina) in two different protocols.
Protocol 1. 8 sheep of the Corriedale breed were treated with prednisolone acetate three times a day in both eyes, leading to elevated IOP. After one week, the animals received intravitreal injections of human recombinant tPA (100, 200, 500 and 1000 μg, two animals each) dissolved in balanced salt solution (BSS) in one eye. IOP was monitored for 19 more days while the animals continued to receive treatment with prednisolone. Periodic slit lamp examination was also performed.

sheep = assay: Sheep given tPA or arginine concurrently with prednisolone (Example 3 Protocol 2, Example 4); format: in vivo; settings: 11 days
Protocol: Protocol 2. In a second set of experiments, arginine was added to the BSS vehicle administered to the left eye to control for the relatively high concentration of the amino acid in the commercially available tPA lyophilisate. In these experiments all right eyes received 0.1 mg tPA, which concomitantly delivered 4.23 mg of arginine into the vitreous, and the left eye received this same amount of arginine, absent the tPA. On Day 1, prednisolone treatments were also begun simultaneously on both eyes.
Methods. In this experiment, the inventor sought to detect the effects of tPA treatment on prevention of steroid-induced IOP elevation. In 4 sheep tPA was injected in one eye (100 μg) and they were started on prednisolone acetate three times a day in both eyes. Animals were monitored for 11 days on continuous treatment.

[2] = system: sheep of the Coriedale breed; assay: IOP in prednisolone-treated sheep after tPA injection into the anterior chamber (Example 9); format: in vivo; settings: 0.0001 μg into the AC; IOP 23.0 mm Hg at 6:00 and 30:00 hrs after injection
Protocol: Methods. Lyophilized IPA, obtained as Acetilyse® from Boehringer Ingelheim S.A. (Buenos Aires) containing arginine. was used. Five sheep of the Coriedale breed were selected. Initially all eyes received instillation of 1% prednisolone 3 times/day for 10 days to elevate their IOP from 10 mm Hg to about 23 mm Hg. Then, 0.0001 μg was injected into one of the eyes and its effect was followed for up to 55:00 hrs while the instillation of prednisolone continued in both eyes. The same protocol was implemented for the 0.001 and 0.01 μg amounts (after extended washout) in the contra lateral eyes. Arginine, which is associated with 0.01 ug tPA, was injected alone and had no effect.

[3] = system: Mmp-2, Mmp-9, Mmp-13 and Plat mRNA; assay: Mmp and Plat expression in protein treated C57BL/6J eyes without steroids (Example 15); format: in vivo, mouse; settings: non-steroid treated C57BL/6 eyes; group means versus BSA; p>0.05
Mmp-9KO mice = assay: Outflow facility in protein treated Mmp-9KO mouse eyes (Example 16); format: in vivo; settings: Mmp-9KO eyes, intravitreal; p>0.05 ANOVA
Description: Animals: 8- to 12-week-old female mice were used for this study. The animals were housed and bred at the State University of New York (SUNY) Downstate Health Sciences University Division of Comparative Medicine (Brooklyn. NY) under a 12-hour light/12-hour dark cycle and food ad libitum. C57BL/6J mice were obtained from The Jackson Laboratories (Bar Harbor, ME, USA). A PlatKO mouse colony was established from animals (stock No. 002508) obtained from The Jackson Laboratories. These animals are on a C57BL/61 background (www.jax.org/strain/002508). AnMmp-9KO mouse colony was established from animals (stock No. 007084) obtained from The Jackson Laboratories. These animals are on a mixed background but have been bred into the C57BL/6J background for five generations (www.jax.org/strain/007084). […]
Outflow facility determination: Mouse eyes were enucleated immediately after euthanasia. Outflow facility was determined using a constant pressure method, as previously described. […] Flow was constantly measured via a microfluidic flow sensor (0.07-1.5 uL/min, MFS1; Elveflow, Paris, France). […] Any eyes that developed visible leaks during outflow facility determination, or that had pressure-flow correlations with R^2<0.9, were excluded from analysis but were used for RNA quantification.

[4] = system: MMP-2, MMP-9, MMP-13 expression in HTM cells; assay: MMP expression in HTM cells (Examples 17, 18); format: cell-based, human; settings: PA treated HTM cells; p<0.0001
[5] = intravitreal; toxicity attributed to arginine in the commercial preparations; cited from earlier work

tPA: recombinant human tissue plasminogen activator (ACTILYSE; Boehringer Ingelheim), enzymatically active
dose dependence of the IOP effect ([1]; 100, 200, 500 and 1000 μg, p>0.05 ANOVA): independent of the dose
ocular findings ([1]; intravitreal tPA, unrelated to the dose injected): Transient injection and corneal clouding was observed in some eyes
mean (±SD) IOP after tPA ([1]; within 24 h of intravitreal tPA, all doses tested (100-1000 μg), prednisolone continued, before 24.1 (±1.6)): 14.1 (±1.1) mmHg
effect on steroid-induced IOP elevation (sheep; 100 μg in one eye concurrent with prednisolone acetate three times a day): prevented IOP elevation
ocular findings (sheep; 100 μg tPA): Transient injection and corneal clouding was observed in some eyes
effect on IOP [2]: no effect
gene expression changes in Mmp-2, Mmp-9, and Mmp-13 [3]: not significantly different
effect on outflow facility (Mmp-9KO mice): did not increase outflow facility
expression (FIG. 17C) compared to PA+BSA treated cells [4]: significant upregulation
doses with reported retinal toxicity [5]: 50-100 lag
